In ChEMBL document CHEMBL3045827, “High osmolar contrast medium causes mild oxidation in liver, bladder, and ovary tissues from rats: vitamin C has protective role” (2010):

Tests used:
Rattus norvegicus [1] = assay: Inhibition of ionic high-osmolar contrast medium-induced oxidative stress in Rattus norvegicus Wistar albino (rat) liver assessed as MDA level at 250 mg/kg/day administered through drinking water measured on 6th day by TBARS method (reference value: 0.579 +/- 0.129 %); type: functional; design: scale not given: the % may be the effect or the level left
Rattus norvegicus [2] = assay: Inhibition of ionic high-osmolar contrast medium-induced oxidative stress in Rattus norvegicus Wistar albino (rat) liver assessed as NOS activity at 250 mg/kg/day administered through drinking water measured on 6th day (reference value: 0.208 +/- 0.031 mIU/ml); type: functional
Rattus norvegicus [3] = assay: Inhibition of ionic high-osmolar contrast medium-induced oxidative stress in Rattus norvegicus Wistar albino (rat) liver assessed as NO level at 250 mg/kg/day administered through drinking water measured on 6th day by Griess reaction method (reference value: 1.082 +/- 0.359%); type: functional; design: scale not given: the % may be the effect or the level left
Rattus norvegicus [4] = assay: Inhibition of ionic high-osmolar contrast medium-induced oxidative stress in Rattus norvegicus Wistar albino (rat) ovary assessed as MDA level at 250 mg/kg/day administered through drinking water measured on 6th day by TBARS method (reference value: 0.986 +/- 0.323 %); type: functional, Female gonad; design: scale not given: the % may be the effect or the level left
Rattus norvegicus [5] = assay: Inhibition of ionic high-osmolar contrast medium-induced oxidative stress in Rattus norvegicus Wistar albino (rat) liver assessed as GSH-Px activity at 250 mg/kg/day administered through drinking water measured on 6th day (reference value: 0.056 +/- 0.019 IU); type: functional
Rattus norvegicus [6] = assay: Inhibition of ionic high-osmolar contrast medium-induced oxidative stress in Rattus norvegicus Wistar albino (rat) liver assessed as SOD activity at 250 mg/kg/day administered through drinking water measured on 6th day by NBT reduction method (reference value: 146.4 +/- 25.89 U/mg); type: functional
Rattus norvegicus [7] = assay: Inhibition of ionic high-osmolar contrast medium-induced oxidative stress in Rattus norvegicus Wistar albino (rat) liver assessed as catalase activity at 250 mg/kg/day administered through drinking water measured on 6th day (reference value: 119.8 +/- 13.43 IU); type: functional
Rattus norvegicus [8] = assay: Inhibition of ionic high-osmolar contrast medium-induced oxidative stress in Rattus norvegicus Wistar albino (rat) bladder assessed as MDA level at 250 mg/kg/day administered through drinking water measured on 6th day by TBARS method (reference value: 1.180 +/- 0.803 %); type: functional; design: scale not given: the % may be the effect or the level left

Compound: O=C1O[C@H]([C@@H](O)CO)C(O)=C1O [ASCORBIC ACID]
- Activity (Rattus norvegicus [1]): 0.49%
- Activity (Rattus norvegicus [2]): 0.224 mIU/ml
- Activity (Rattus norvegicus [3]): 0.965%
- Activity (Rattus norvegicus [4]): 0.762%
- Activity (Rattus norvegicus [5]): 0.05 IU
- Activity (Rattus norvegicus [6]): 193.2 U/mg
- Activity (Rattus norvegicus [7]): 118.9 IU
- Activity (Rattus norvegicus [8]): 0.821%
